Source: ChEMBL document CHEMBL3392959, “Iminosugars as a new class of cholinesterase inhibitors” (Bioorg Med Chem Lett, 2015)
Active and inactive are the calls of the source. No cut-off for these calls is given here.

Key:
Acetylcholinesterase [1] = molecular target: T1, Acetylcholinesterase (Homo sapiens, UniProt P22303); assay: Inhibition of human recombinant AchE using acetylthiocholine iodide as substrate at 250 uM by Ellman method
Cholinesterase [2] = molecular target: T2, Cholinesterase (Homo sapiens, UniProt P06276)
Description: Inhibition of human recombinant serum BuchE using butyrylthiocholine iodide as substrate by Ellman method

[3] = molecular target: Acetylcholinesterase (Electrophorus electricus) (UniProt O42275); assay: Inhibition of electric eel AchE using acetylthiocholine iodide as substrate at 250 uM by Ellman method
Cholinesterase [4] = molecular target: T2, Cholinesterase; assay: Inhibition of human recombinant serum BuchE using butyrylthiocholine iodide as substrate at 250 uM by Ellman method
Acetylcholinesterase [5] = molecular target: T1, Acetylcholinesterase
Description: Inhibition of human recombinant AchE using acetylthiocholine iodide as substrate by Ellman method

Acetylcholinesterase [6] = molecular target: Acetylcholinesterase (Electrophorus electricus, UniProt O42275); assay: Inhibition of electric eel AchE using acetylthiocholine iodide as substrate by Ellman method
Acetylcholinesterase (Electrophorus electricus, UniProt O42275), sequence (O42275 whole entry): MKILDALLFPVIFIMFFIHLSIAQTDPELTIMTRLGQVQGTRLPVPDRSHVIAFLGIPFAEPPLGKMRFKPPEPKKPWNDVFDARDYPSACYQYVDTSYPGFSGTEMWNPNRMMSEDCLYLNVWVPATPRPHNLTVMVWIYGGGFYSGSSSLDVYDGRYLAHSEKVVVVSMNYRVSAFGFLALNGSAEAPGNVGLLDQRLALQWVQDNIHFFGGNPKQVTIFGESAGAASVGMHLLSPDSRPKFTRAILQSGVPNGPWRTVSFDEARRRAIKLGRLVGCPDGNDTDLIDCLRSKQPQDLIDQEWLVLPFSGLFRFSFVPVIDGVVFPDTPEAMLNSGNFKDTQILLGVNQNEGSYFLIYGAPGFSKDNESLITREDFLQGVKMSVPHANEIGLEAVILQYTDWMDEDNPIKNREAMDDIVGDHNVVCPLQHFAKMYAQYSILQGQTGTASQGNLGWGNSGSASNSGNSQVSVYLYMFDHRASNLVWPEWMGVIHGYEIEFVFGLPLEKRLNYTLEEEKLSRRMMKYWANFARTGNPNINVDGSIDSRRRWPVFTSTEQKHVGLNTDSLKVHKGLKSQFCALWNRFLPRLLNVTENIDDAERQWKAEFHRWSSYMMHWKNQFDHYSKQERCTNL

T1 sequence (P22303 whole entry): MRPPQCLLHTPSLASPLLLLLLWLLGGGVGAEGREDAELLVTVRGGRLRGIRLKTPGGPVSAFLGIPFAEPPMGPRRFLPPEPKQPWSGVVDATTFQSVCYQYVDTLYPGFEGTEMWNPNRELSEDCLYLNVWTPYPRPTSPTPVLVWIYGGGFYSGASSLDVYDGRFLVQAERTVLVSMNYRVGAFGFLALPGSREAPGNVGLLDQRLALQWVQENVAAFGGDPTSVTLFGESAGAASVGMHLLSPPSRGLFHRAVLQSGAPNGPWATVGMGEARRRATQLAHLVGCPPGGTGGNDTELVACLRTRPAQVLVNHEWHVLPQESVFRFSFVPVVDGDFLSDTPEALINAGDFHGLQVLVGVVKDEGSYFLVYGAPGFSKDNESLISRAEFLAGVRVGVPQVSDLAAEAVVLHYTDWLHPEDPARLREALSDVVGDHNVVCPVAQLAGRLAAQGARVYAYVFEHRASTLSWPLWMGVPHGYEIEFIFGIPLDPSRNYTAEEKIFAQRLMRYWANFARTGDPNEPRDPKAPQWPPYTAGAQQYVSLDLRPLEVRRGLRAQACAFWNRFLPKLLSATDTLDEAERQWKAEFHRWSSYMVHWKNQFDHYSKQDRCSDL
Acetylcholinesterase (Electrophorus electricus), sequence (O42275 24-633 limits assumed): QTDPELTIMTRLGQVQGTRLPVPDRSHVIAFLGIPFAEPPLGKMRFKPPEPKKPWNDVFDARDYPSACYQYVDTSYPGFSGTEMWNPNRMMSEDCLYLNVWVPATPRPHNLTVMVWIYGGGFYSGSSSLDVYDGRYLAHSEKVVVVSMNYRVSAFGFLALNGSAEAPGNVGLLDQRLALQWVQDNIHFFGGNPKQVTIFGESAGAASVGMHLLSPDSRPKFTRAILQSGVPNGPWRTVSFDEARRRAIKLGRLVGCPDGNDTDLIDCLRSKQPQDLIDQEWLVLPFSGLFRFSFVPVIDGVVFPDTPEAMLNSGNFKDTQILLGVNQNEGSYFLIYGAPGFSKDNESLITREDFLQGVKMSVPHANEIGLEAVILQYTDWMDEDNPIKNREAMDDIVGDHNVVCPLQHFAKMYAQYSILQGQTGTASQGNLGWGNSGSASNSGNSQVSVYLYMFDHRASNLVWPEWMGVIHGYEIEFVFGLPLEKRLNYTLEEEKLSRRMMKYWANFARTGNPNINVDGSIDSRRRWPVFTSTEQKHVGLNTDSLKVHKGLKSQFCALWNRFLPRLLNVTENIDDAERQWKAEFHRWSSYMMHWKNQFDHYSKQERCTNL
T2 sequence (P06276 whole entry): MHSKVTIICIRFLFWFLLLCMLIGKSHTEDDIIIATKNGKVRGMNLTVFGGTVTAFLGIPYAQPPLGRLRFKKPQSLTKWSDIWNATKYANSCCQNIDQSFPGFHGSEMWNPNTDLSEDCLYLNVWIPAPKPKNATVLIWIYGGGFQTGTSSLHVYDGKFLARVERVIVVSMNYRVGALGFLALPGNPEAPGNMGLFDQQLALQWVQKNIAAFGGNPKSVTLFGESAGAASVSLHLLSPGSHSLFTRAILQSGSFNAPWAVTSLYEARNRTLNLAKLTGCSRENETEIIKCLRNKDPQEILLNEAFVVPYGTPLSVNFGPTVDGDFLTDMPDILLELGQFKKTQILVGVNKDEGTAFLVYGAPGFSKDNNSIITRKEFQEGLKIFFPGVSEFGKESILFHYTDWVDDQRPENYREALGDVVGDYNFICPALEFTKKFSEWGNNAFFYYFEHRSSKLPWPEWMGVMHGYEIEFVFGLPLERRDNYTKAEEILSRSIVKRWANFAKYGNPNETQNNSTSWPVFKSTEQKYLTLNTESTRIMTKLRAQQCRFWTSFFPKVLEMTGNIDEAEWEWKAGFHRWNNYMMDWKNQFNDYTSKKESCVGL

Compound	inhibition (Acetylcholinesterase [1])	IC50 (Cholinesterase [2]) [µM]	inhibition [3]	inhibition (Cholinesterase [4])	IC50 (Acetylcholinesterase [5]) [µM]	IC50 (Acetylcholinesterase [6]) [µM]
O[C@@H]1[C@@H](O)[C@@H](Cc2cn(Cc3cc(OCc4ccccc4)cc(OCc4ccccc4)c3)nn2)NC[C@H]1O	< 50%	1.2	< 50%	–	–	–
C[Si](C)(C)CCCn1cc(C[C@H]2NC[C@@H](O)[C@H](O)[C@H]2O)nn1	inactive	–	inactive	inactive	–	–
c1ccc(COC[C@H]2NC[C@H](OCc3ccccc3)[C@@H](OCc3ccccc3)[C@@H]2OCc2ccccc2)cc1	–	2	–	–	60	3
C=CC[C@H]1NC[C@@H](O)[C@H](O)[C@H]1O	inactive	–	inactive	inactive	–	–
C=CC[C@@H]1[C@H](O)[C@@H](OCc2ccccc2)[C@H](O)CN1CCCCCCCC	–	3	–	–	22	63
CCCCCCCCN1C[C@@H](O)[C@H](O)[C@@H](O)[C@H]1CCC	inactive	–	inactive	inactive	–	–
CCCCN1C[C@@H](O)[C@H](O)[C@@H](O)[C@H]1CCC	inactive	–	inactive	inactive	–	–
O[C@@H]1[C@@H](O)[C@@H](Cc2cn(Cc3ccccc3)nn2)NC[C@H]1O	inactive	–	inactive	inactive	–	–
C=CC[C@H]1NC[C@@H](O)[C@H](OCc2ccccc2)[C@H]1O	< 50%	61	< 50%	–	–	–
CCCc1cn(CCCCCCN2C[C@H](O)[C@@H](O)[C@H](O)[C@H]2CO)nn1	inactive	–	inactive	inactive	–	–
CCCCCCCCO[C@H]1CN(CCCCCCCC)[C@H](CO)[C@H](O)[C@@H]1O	inactive	–	inactive	inactive	–	–
O[C@@H]1[C@@H](OCc2ccccc2)[C@@H](Cc2cn(Cc3ccccc3)nn2)NC[C@H]1O	< 50%	7	< 50%	–	–	–
CCCCCC[C@H]1N[C@@H](CO)[C@@H](O)[C@H](O)[C@H]1O	inactive	–	inactive	inactive	–	–
CCCCCCCCCCn1cc(C[C@H]2NC[C@@H](O)[C@H](O)[C@H]2O)nn1	inactive	–	inactive	inactive	–	–
C=CC[C@@H]1[C@H](O)[C@@H](O)[C@H](O)CN1CCCCCCCC	< 50%	161	< 50%	–	–	–
CCC[C@@H]1NC[C@@H](O)[C@H](O)[C@H]1O	< 50%	210	< 50%	–	–	–
CCCCCC[C@H]1NC[C@@H](O)[C@H](O)[C@H]1O	inactive	–	inactive	inactive	–	–
O=C1N[C@H](COCc2ccccc2)[C@@H](OCc2ccccc2)[C@H](OCc2ccccc2)[C@H]1OCc1ccccc1	–	4	–	–	46	2
CCCCCCCCO[C@H]1[C@H](O)[C@@H](O)CN(CCCCCCCC)[C@@H]1CO	inactive	–	inactive	inactive	–	–
CCCCCCCCC[C@H]1NC[C@@H](O)[C@H](O)[C@H]1O	inactive	–	inactive	inactive	–	–
C#CC[C@H]1NC[C@@H](O)[C@H](O)[C@H]1OCc1ccccc1	inactive	–	inactive	inactive	–	–
O[C@@H]1[C@@H](O)[C@@H](Cc2cn(CCC(c3ccccc3)c3ccccc3)nn2)NC[C@H]1O	< 50%	15	< 50%	–	–	–
CCCCCCO[C@H]1CNC[C@@H](O)[C@@H]1O	inactive	–	inactive	inactive	–	–
